This is an account of results in patent publication US8492346B2, “Methods of use of epsilon inhibitor compounds for the attenuation of pain” (KAI Pharmaceuticals, Inc., priority 2007, dated 2013).

A short description of series [1]: Plasma stability in rat sera. The series is classed as in vitro ADME. As to conditions: 30 minutes. As for the experimental part:
(§1) The plasma and chemical stability of various cargo/carrier peptide constructs described in Example 1 was tested. Plasma stability of the compounds was tested using both human and rat sera and the amount of starting material was determined after 30 minutes of treatment. Chemical stability was evaluated by determining the amount of starting material remaining after 9 days of treatment.
(§2) The plasma stability of various cargo/carrier peptide constructs described in Example 1 was tested using both human and rat sera and the amount of starting material was determined over time to 30 minutes of treatment. The time course data for cargo/carrier peptides KP-1586, KP-1630, and KP-1631 is shown in FIG. 3, the data for peptides KP-1632, KP-1633, and KP-1634 is shown in FIG. 4, and the data for peptides KP-1635, KP-1636, and KP-1637 is shown in FIG. 5.

The nature of series [2]: Plasma stability in human sera. The series is classed as in vitro ADME. As to conditions: for remaining at 0.5 h: plasma, human sera, 30 minutes. The procedure:
as §1, §2

Series [3] in a line: Chemical stability of cargo/carrier peptide constructs. The series is classed as physicochemical. As to conditions: 9 days of treatment. As for the experimental part: as §1
The chemical stability of various cargo/carrier peptide constructs described in Example 1 was tested by examining the relative concentration of the peptides over a time period of more than 200 hours at 37° C.

Series [4] has as its system carrageenan-induced mechanical hyperalgesia. Nature of the series: Carrageenan inflammatory pain model, Randall-Selitto paw-withdrawal test. The series is classed as in vivo, rat. The procedure: The nociceptive flexior reflex was quantified on lightly restrained rats by using a Basile Analgesymeter (Randall-Selitto test). Inflammatory hyperlagesia was induced by injection of Carr (1%, 5 uL, i.d.), which was injected unilaterally to the dorsum of the hindpaw one-hour prior to compound administration. The εPKC inhibitor peptide (εV1-2) was injected via systemic routes.
The nociceptive flexior reflex was quantified on lightly restrained rats by using a Basile Analgesymeter (Randall-Selitto test). Inflammatory hyperlagesia was induced by injection of Carr (1%, 5 μL, i.d.), which was injected unilaterally to the dorsum of the hindpaw one-hr prior to compound administration. The εPKC inhibitor peptide (εV1-2) was injected via systemic routes.
The rat carrageenan model has been extensively used to evaluate the response to modulators of inflammatory pain. In the model used for the studies described below, a single 5 microL injection of a 1% solution of carrageenan into the plantar surface of the right hindpaw was used to elicit an inflammatory response resulting in local edema and mechanical hyperalgesia. The mechanical hyperalgesia was quantitated as previously described using measurements of the nociceptive flexion reflex (Randall-Selitto paw-withdrawal test) in response to mechanical painful stimulation at the site of carrageenan injection. […] In the absence of further treatment, the PWT remained stable at ˜55 g for several hours, making it possible to use this model to evaluate the time-course of the response to treatment over the course of at least six hours after the establishment of the disease state.

Where no end group is shown, it is not given here.

Consider `CC(=O)N[C@@H](CSSC[C@H](NC(C)=O)C(=O)N[C@@H](CCC(=O)O)C(=O)N[C@@H](C)C(=O)N[C@H](C(=O)N[C@@H](CO)C(=O)N[C@@H](CC(C)C)C(=O)N[C@@H](CCCCN)C(=O)N1CCC[C@H]1C(=O)N[C@H](C(=O)N[C@@H](C)C(=O)N[C@@H](Cc1c[nH]c2ccccc12)C(=O)N[C@@H](CO)C(=O)N[C@@H](CC(C)C)C(=O)N[C@@H](CCCNC(=N)N)C(=O)O)[C@@H](C)O)C(C)C)C(=O)N[C@@H](Cc1ccc(O)cc1)C(=O)NCC(=O)N[C@@H](CCCNC(=N)N)C(=O)N[C@@H](CCCCN)C(=O)N[C@@H](CCCCN)C(=O)N[C@@H](CCCNC(=N)N)C(=O)N[C@@H](CCCNC(=N)N)C(=O)N[C@@H](CCC(N)=O)C(=O)N[C@@H](CCCNC(=N)N)C(=O)N[C@@H](CCCNC(=N)N)C(=O)N[C@@H](CCCNC(=N)N)C(N)=O` [KP-1632, Ac-C-E-A-V-S-L-K-P-T-A-W-S-L-R], for which the fraction remaining at 0.5 h in series [1] is 61%; in series [2], 54%. Further, the fraction remaining at 216 h in series [3] is 89%.

As for `CC(C)C[C@H](NC(=O)[C@H](CO)NC(=O)[C@@H](NC(=O)[C@H](C)NC(=O)[C@H](CCC(=O)O)NC(=O)[C@@H](N)CSSC[C@H](N)C(=O)N[C@@H](Cc1ccc(O)cc1)C(=O)NCC(=O)N[C@@H](CCCNC(=N)N)C(=O)N[C@@H](CCCCN)C(=O)N[C@@H](CCCCN)C(=O)N[C@@H](CCCNC(=N)N)C(=O)N[C@@H](CCCNC(=N)N)C(=O)N[C@@H](CCC(N)=O)C(=O)N[C@@H](CCCNC(=N)N)C(=O)N[C@@H](CCCNC(=N)N)C(=O)N[C@@H](CCCNC(=N)N)C(=O)O)C(C)C)C(=O)N[C@@H](CCCCN)C(=O)N1CCC[C@H]1C(=O)N[C@H](C(=O)O)[C@@H](C)O` [KP-1636, C-E-A-V-S-L-K-P-T, reference compound], the amount remaining at 0.5 h in series [1] and in series [2] was 79% throughout. Further, in series [3], the amount remaining at 216 h amounted to 27%.

With `CC(=O)N[C@@H](CSSC[C@H](NC(C)=O)C(=O)N[C@@H](CC(C)C)C(=O)N[C@@H](CCCCN)C(=O)N1CCC[C@H]1C(=O)N[C@H](C(=O)N[C@@H](C)C(=O)N[C@@H](Cc1c[nH]c2ccccc12)C(=O)N[C@@H](CO)C(=O)N[C@@H](CC(C)C)C(=O)N[C@@H](CCCNC(=N)N)C(N)=O)[C@@H](C)O)C(=O)N[C@@H](Cc1ccc(O)cc1)C(=O)NCC(=O)N[C@@H](CCCNC(=N)N)C(=O)N[C@@H](CCCCN)C(=O)N[C@@H](CCCCN)C(=O)N[C@@H](CCCNC(=N)N)C(=O)N[C@@H](CCCNC(=N)N)C(=O)N[C@@H](CCC(N)=O)C(=O)N[C@@H](CCCNC(=N)N)C(=O)N[C@@H](CCCNC(=N)N)C(=O)N[C@@H](CCCNC(=N)N)C(N)=O` [KP-1631, Ac-C-L-K-P-T-A-W-S-L-R-NH2], the amount remaining at 0.5 h came out at 67% in series [1] and 49% in series [2]. For the same molecule, the share remaining at 216 h in series [3] came to 76%.

`CC(=O)N[C@@H](CCSSCC[C@H](NC(C)=O)C(=O)N[C@@H](CCC(=O)O)C(=O)N[C@@H](C)C(=O)N[C@H](C(=O)N[C@@H](CO)C(=O)N[C@@H](CC(C)C)C(=O)N[C@@H](CCCCN)C(=O)N1CCC[C@H]1C(=O)N[C@H](C(N)=O)[C@@H](C)O)C(C)C)C(=O)N[C@@H](Cc1ccc(O)cc1)C(=O)NCC(=O)N[C@@H](CCCNC(=N)N)C(=O)N[C@@H](CCCCN)C(=O)N[C@@H](CCCCN)C(=O)N[C@@H](CCCNC(=N)N)C(=O)N[C@@H](CCCNC(=N)N)C(=O)N[C@@H](CCC(N)=O)C(=O)N[C@@H](CCCNC(=N)N)C(=O)N[C@@H](CCCNC(=N)N)C(=O)N[C@@H](CCCNC(=N)N)C(=O)O` [KP-1638, Ac-hC-E-A-V-S-L-K-P-T-NH2]: in series [3], the fraction remaining at 216 h was 100%.

As to `CC(=O)N[C@@H](CSSC[C@H](N)C(=O)N[C@@H](CCC(=O)O)C(=O)N[C@@H](C)C(=O)N[C@H](C(=O)N[C@@H](CO)C(=O)N[C@@H](CC(C)C)C(=O)N[C@@H](CCCCN)C(=O)N1CCC[C@H]1C(=O)N[C@H](C(=O)O)[C@@H](C)O)C(C)C)C(=O)N[C@@H](Cc1ccc(O)cc1)C(=O)NCC(=O)N[C@@H](CCCNC(=N)N)C(=O)N[C@@H](CCCCN)C(=O)N[C@@H](CCCCN)C(=O)N[C@@H](CCCNC(=N)N)C(=O)N[C@@H](CCCNC(=N)N)C(=O)N[C@@H](CCC(N)=O)C(=O)N[C@@H](CCCNC(=N)N)C(=O)N[C@@H](CCCNC(=N)N)C(=O)N[C@@H](CCCNC(=N)N)C(N)=O` [KP-1586, C-E-A-V-S-L-K-P-T], the share remaining at 0.5 h was 77% in series [1] and 85% in series [2]. In addition, the share remaining at 216 h in series [3] was found to be 57%.

Consider `COc1ccc2c(c1)c(CC(=O)O)c(C)n2C(=O)c1ccc(Cl)cc1` [indomethacin, reference compound], for which the Carrageenan-induced mechanical hyperalgesia result in series [4] (oral, 10 mg/kg, after end of 5-hr IV infusion of KAI-1678) is listed as “completely reversed the mechanical hyperalgesia”.

On to E-A-V-S-L-K-P-T (EAVSLKPT) [εV1-2], for which the “Anti-hyperalgesic effect after surgical sympathectomy” value in series [4] (bilateral lumbar sympathectomy plus suprarenal ganglionectomy 7 days before) was “completely abolished anti-hyperalgesic effects”. Besides, the “Paw-withdrawal threshold (PWT)” value in series [4] (intradermal and subcutaneous injection, FIG. 14) is listed as “Increases in paw-withdrawal threshold (PWT)”. For the same molecule, in series [4] (subcutaneous injection, ipsilateral or contralateral hindlimb or dorsal trunk), the Carr-induced mechanical hyperalgesia entry was “dose-dependently suppressed Carr-induced mechanical hyperalgesia”. In addition, the “Carr-induced mechanical hyperalgesia after nerve transection” value in series [4] (subcutaneous, distal to transection of sciatic and saphenous nerves, contralateral paw) is recorded as “no longer suppression of Carr-induced mechanical hyperalgesia”.

Take `CC(=O)N[C@@H](CSSC[C@@H](NC(=O)[C@@H](CCC(=O)O)NC(=O)[C@@H](C)NC(=O)[C@H](NC(=O)[C@@H](CO)NC(=O)[C@@H](CC(C)C)NC(=O)[C@@H](CCCCN)NC(=O)[C@H]1CCCN1C(=O)[C@H](N)[C@H](C)O)C(C)C)C(=O)O)C(=O)N[C@@H](Cc1ccc(O)cc1)C(=O)NCC(=O)N[C@@H](CCCNC(=N)N)C(=O)N[C@@H](CCCCN)C(=O)N[C@@H](CCCCN)C(=O)N[C@@H](CCCNC(=N)N)C(=O)N[C@@H](CCCNC(=N)N)C(=O)N[C@@H](CCC(N)=O)C(=O)N[C@@H](CCCNC(=N)N)C(=O)N[C@@H](CCCNC(=N)N)C(=O)N[C@@H](CCCNC(=N)N)C(N)=O` [KP-1635, t-p-k-l-s-v-a-e-c]: the fraction remaining at 0.5 h in series [1] stood at 72%; in series [2], 63%. Besides, the amount remaining at 216 h in series [3] stood at 95%.

As to `CC(=O)N[C@@H](CCC(=O)O)C(=O)N[C@@H](C)C(=O)N[C@H](C(=O)N[C@@H](CO)C(=O)N[C@@H](CC(C)C)C(=O)N[C@@H](CCCCN)C(=O)N1CCC[C@H]1C(=O)N[C@H](C(=O)NCC(=O)NCC(=O)NCCCC[C@H](NC(=O)CNC(=O)CNC(=O)[C@@H](NC(=O)[C@@H]1CCCN1C(=O)[C@H](CCCCN)NC(=O)[C@H](CC(C)C)NC(=O)[C@H](CO)NC(=O)[C@@H](NC(=O)[C@H](C)NC(=O)[C@H](CCC(=O)O)NC(C)=O)C(C)C)[C@@H](C)O)C(=O)N[C@@H](CSSC[C@H](NC(C)=O)C(=O)N[C@@H](Cc1ccc(O)cc1)C(=O)NCC(=O)N[C@@H](CCCNC(=N)N)C(=O)N[C@@H](CCCCN)C(=O)N[C@@H](CCCCN)C(=O)N[C@@H](CCCNC(=N)N)C(=O)N[C@@H](CCCNC(=N)N)C(=O)N[C@@H](CCC(N)=O)C(=O)N[C@@H](CCCNC(=N)N)C(=O)N[C@@H](CCCNC(=N)N)C(=O)N[C@@H](CCCNC(=N)N)C(N)=O)C(=O)O)[C@@H](C)O)C(C)C` [KP-1634, [Ac-E-A-V-S-L-K-P-T-G-G]-K-C], the amount remaining at 0.5 h came out at 106% in series [1] and 87% in series [2]. For the same molecule, the fraction remaining at 216 h in series [3] was 82%.

In the case of “EAVSLKPTGGYGRKKRRQRRR-NH2 [KP-1633, E-A-V-S-L-K-P-T-G-G-TaT-NH2]”, the fraction remaining at 0.5 h in series [1] came to 77%; in series [2], 83%. Further, in series [3], the share remaining at 216 h is 99%.

Consider `CC(=O)N[C@@H](CSSC[C@H](NC(C)=O)C(=O)N[C@@H](CCC(=O)O)C(=O)N[C@@H](C)C(=O)N[C@H](C(=O)N[C@@H](CO)C(=O)N[C@@H](CC(C)C)C(=O)N[C@@H](CCCCN)C(=O)N1CCC[C@H]1C(=O)N[C@H](C(N)=O)[C@@H](C)O)C(C)C)C(=O)N[C@@H](Cc1ccc(O)cc1)C(=O)NCC(=O)N[C@@H](CCCNC(=N)N)C(=O)N[C@@H](CCCCN)C(=O)N[C@@H](CCCCN)C(=O)N[C@@H](CCCNC(=N)N)C(=O)N[C@@H](CCCNC(=N)N)C(=O)N[C@@H](CCC(N)=O)C(=O)N[C@@H](CCCNC(=N)N)C(=O)N[C@@H](CCCNC(=N)N)C(=O)N[C@@H](CCCNC(=N)N)C(N)=O` [KP-1630, Ac-C-E-A-V-S-L-K-P-T-NH2], for which the share remaining at 0.5 h in series [1] was determined as 77%; in series [2], 76%. The “Plasma stability, time course to 30 minutes” value in series [2] (human and rat sera, FIGS. 3-5) is “little impact on plasma stability”. The share remaining at 216 h in series [3] amounted to 67%.
